Experimental data as given in the Kinase Knowledgebase extract (Sharma et al. 2016).

Experiments:
MAPK14 (human) [1] = molecular target: MAPK14 (human) (UniProt Q16539); experiment: Inhibition of MAPK14 Kinase Activity
MAPK14 (human) [2] = molecular target: MAPK14 (human) (UniProt Q16539); experiment: Assessment of MAPK14 Kinase Activity

MAPK14 (human), sequence (Q16539 whole entry, looked up): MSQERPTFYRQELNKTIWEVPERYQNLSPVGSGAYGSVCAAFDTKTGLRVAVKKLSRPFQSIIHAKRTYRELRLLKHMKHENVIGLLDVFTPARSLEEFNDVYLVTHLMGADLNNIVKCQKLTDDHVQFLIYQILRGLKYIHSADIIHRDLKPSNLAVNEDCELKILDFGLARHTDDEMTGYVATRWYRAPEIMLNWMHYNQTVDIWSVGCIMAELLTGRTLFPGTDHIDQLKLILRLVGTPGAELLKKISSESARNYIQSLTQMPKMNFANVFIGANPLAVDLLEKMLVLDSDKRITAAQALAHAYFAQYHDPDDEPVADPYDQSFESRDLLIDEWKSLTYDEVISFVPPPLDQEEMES

SMILES	IC50 (MAPK14 (human) [1]) [µM]	IC50 (MAPK14 (human) [2]) [µM]
CCC(C)(C)NC(=O)c1ccc(-c2cc(C(=O)NC3CC3)cc(F)c2C)[n+]([O-])c1	< 10	< 10
Cc1c(F)cc(C(=O)NC2CC2)cc1-c1ccc(C(=O)NCC(C)(C)C)c[n+]1[O-]	< 10	< 10
Cc1ccc(C)c(CNC(=O)c2ccc(-c3cc(C(=O)NC4CC4)cc(F)c3C)[n+]([O-])c2)c1	< 10	< 10
Cc1ccc(CNC(=O)c2ccc(-c3cc(C(=O)NC4CC4)cc(F)c3C)[n+]([O-])c2)cc1C	< 10	< 10
COC[C@H](C)NC(=O)c1ccc(-c2cc(C(=O)NC3CC3)cc(F)c2C)[n+]([O-])c1	< 10	< 10
CCCNC(=O)c1ccc(-c2cc(C(=O)NC3CC3)cc(F)c2C)[n+]([O-])c1	< 10	< 10
CCC(CC)NC(=O)c1ccc(-c2cc(C(=O)NC3CC3)cc(F)c2C)[n+]([O-])c1	< 10	< 10
Cc1c(F)cc(C(=O)NC2CC2)cc1-c1ccc(C(=O)N[C@H](C)C(C)C)c[n+]1[O-]	< 10	< 10
Cc1c(F)cc(C(=O)NC2CC2)cc1-c1ccc(C(=O)NCc2ccc(C(F)(F)F)cc2C(F)(F)F)c[n+]1[O-]	< 10	< 10
Cc1c(F)cc(C(=O)NC2CC2)cc1-c1ccc(C(=O)NC(C)c2ccc(Cl)cc2)c[n+]1[O-] (centres undefined)	< 10	< 10
CCC1CCCN(C(=O)c2ccc(-c3cc(C(=O)NC4CC4)cc(F)c3C)[n+]([O-])c2)C1 (centres undefined)	< 10	< 10
CCc1ccccc1CNC(=O)c1ccc(-c2cc(C(=O)NC3CC3)cc(F)c2C)[n+]([O-])c1	< 10	< 10
